ChEMBL document CHEMBL1133022, “Predicting blood-brain barrier permeation from three-dimensional molecular structure” (J Med Chem, 2000)

Species on record: Mus musculus
Assay: BBB penetration classification
Conditions: not given

SMILES | Permeability
C[C@H](CN1c2ccccc2Sc2ccccc21)N(C)C | Permeable
CCC(NC(=O)c1c(C)c(-c2ccccc2)nc2ccccc12)c1ccccc1 (stereo unspecified) | Permeable
CC(C)(C)c1ccc([C@@H](O)CCCN2CCC(C(O)(c3ccccc3)c3ccccc3)CC2)cc1 | Impermeable
O=C(Cc1ccc(Cl)c(Cl)c1)N1CCc2occc2[C@H]1CN1CC[C@H](O)C1 | Permeable
O=C(Cc1ccc(Cl)c(Cl)c1)N1CCCC[C@H]1CN1CCCC1 | Permeable
O=C(Cc1ccc(Cl)c(Cl)c1)N1CCc2occc2[C@H]1CN1CC[C@@H](O)C1 (mixture of isomers) | Permeable
O=C(Cc1ccc(Cl)c(Cl)c1)N1CCc2occc2[C@@H]1CN1CC[C@H](O)C1 (racemic) | Permeable
C[C@@H](CN1c2ccccc2Sc2ccccc21)N(C)C [(S)-PROMETHAZINE] | Permeable
COc1ccc(CCN2CCC(Nc3nc4ccccc4n3Cc3ccc(F)cc3)CC2)cc1 [ASTEMIZOLE] | Impermeable
Cn1c(=O)c2c(ncn2C)n(C)c1=O [CAFFEINE] | Permeable
CN(C)CCCN1c2ccccc2Sc2ccc(Cl)cc21 [CHLORPROMAZINE] | Permeable
CN/C(=N/CCSCc1nc[nH]c1C)NC#N [CIMETIDINE] | Impermeable
Clc1cccc(Cl)c1N=C1NCCN1 [CLONIDINE] | Permeable
CNCCCN1c2ccccc2CCc2ccccc21 [DESIPRAMINE] | Permeable
O=c1[nH]c2ccccc2n1CCCN1CCC(n2c(=O)[nH]c3cc(Cl)ccc32)CC1 [DOMPERIDONE] | Impermeable
NCCc1ccc(O)c(O)c1 [DOPAMINE] | Impermeable
CC(C)(C)c1ccc(C(=O)CCCN2CCC(OC(c3ccccc3)c3ccccc3)CC2)cc1 [EBASTINE] | Impermeable
C[C@]12CC[C@@H]3c4ccc(O)cc4CC[C@H]3[C@@H]1CC[C@@H]2O [ESTRADIOL] | Permeable
O=C1CC[C@@]2(O)[C@H]3Cc4ccc(O)c5c4[C@@]2(CCN3CC2CC2)[C@H]1O5 [NALTREXONE] | Permeable
CCn1cc(C(=O)O)c(=O)c2cc(F)c(N3CCNCC3)cc21 [NORFLOXACIN] | Impermeable
OCCN1CCN(CCCN2c3ccccc3Sc3ccc(Cl)cc32)CC1 [PERPHENAZINE] | Permeable
CC(C)(C)c1ccc([C@H](O)CCCN2CCC(C(O)(c3ccccc3)c3ccccc3)CC2)cc1 [R-TERFENADINE] | Impermeable
CNC(=C[N+](=O)[O-])NCCSCc1ccc(CN(C)C)o1 [RANITIDINE] | Impermeable
CCCC(C)C1(CC)C(=O)NC(=S)NC1=O (stereo unspecified) [THIOPENTAL] | Permeable
CSc1ccc2c(c1)N(CCC1CCCCN1C)c1ccccc1S2 (stereo unspecified) [THIORIDAZINE] | Permeable

Same assay, conditions: in vivo

SMILES | BBB Impermeable
N[C@@H](Cc1ccc(O)c(O)c1)C(=O)O [LEVODOPA] | Impermeable
